ChEMBL document CHEMBL1133537, “Chiral derivatives of 2-cyclohexylideneperhydro-4,7-methanoindenes, a novel class of nonsteroidal androgen receptor ligand: synthesis, X-ray analysis, and biological activity” (J Med Chem, 2000)

Legend:
Androgen receptor [1] = biological target: T1, Androgen receptor (Rattus norvegicus, UniProt P15207)
T1 sequence (P15207 whole entry): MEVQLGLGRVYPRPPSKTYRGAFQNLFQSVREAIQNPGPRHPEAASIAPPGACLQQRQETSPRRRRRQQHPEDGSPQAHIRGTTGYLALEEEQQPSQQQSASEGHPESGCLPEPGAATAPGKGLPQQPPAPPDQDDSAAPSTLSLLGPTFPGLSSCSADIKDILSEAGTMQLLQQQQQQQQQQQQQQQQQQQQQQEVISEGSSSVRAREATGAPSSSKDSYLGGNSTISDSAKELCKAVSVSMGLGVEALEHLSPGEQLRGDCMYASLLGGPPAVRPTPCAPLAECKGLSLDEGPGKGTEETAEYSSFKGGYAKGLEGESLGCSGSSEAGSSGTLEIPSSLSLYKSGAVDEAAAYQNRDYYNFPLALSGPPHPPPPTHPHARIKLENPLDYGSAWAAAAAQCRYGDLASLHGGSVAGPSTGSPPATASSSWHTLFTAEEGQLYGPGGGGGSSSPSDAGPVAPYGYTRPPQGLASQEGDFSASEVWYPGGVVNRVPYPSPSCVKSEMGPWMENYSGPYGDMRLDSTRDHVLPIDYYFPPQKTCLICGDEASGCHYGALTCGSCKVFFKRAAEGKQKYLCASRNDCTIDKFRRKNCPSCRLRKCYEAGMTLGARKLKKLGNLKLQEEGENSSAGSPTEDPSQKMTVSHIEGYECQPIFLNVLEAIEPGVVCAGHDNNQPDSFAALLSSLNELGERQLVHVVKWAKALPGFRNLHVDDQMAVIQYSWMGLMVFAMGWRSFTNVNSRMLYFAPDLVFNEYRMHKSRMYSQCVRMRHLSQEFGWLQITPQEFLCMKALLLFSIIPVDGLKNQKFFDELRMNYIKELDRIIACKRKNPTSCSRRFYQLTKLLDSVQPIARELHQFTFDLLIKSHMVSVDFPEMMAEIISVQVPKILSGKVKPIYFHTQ
Description: Ability to inhibit binding of [3H]R-1881 to rat ventral prostate cytosolic androgen receptor was measured in a radioligand binding assay.

Androgen receptor [2] = biological target: T1, Androgen receptor; experiment: […] binding affinity fot cytosolic androgen receptor
[3] = Eudismic ratio which is the ratio of potency of eutomer and distomer.

| SMILES | IC50 (Androgen receptor [1]) [µM] | Ki (Androgen receptor [2]) [µM] | Ratio [3] |
| --- | --- | --- | --- |
| O=C1CCC(=C2C[C@@H]3[C@H](C2)[C@@H]2C[C@H]3[C@H](O)C2)CC1 | 35.9 | 0.45 | 15.5 |
| O=C1CCC(=C2C[C@H]3[C@@H](C2)[C@H]2C[C@@H]3[C@H](O)C2)CC1 | 10.4 |  |  |
| C#C[C@]1(O)C[C@@H]2C[C@H]1[C@H]1CC(=C3CCC(=O)CC3)C[C@@H]21 | 13.5 |  |  |
| O=C1CCC(=C2C[C@H]3[C@H]4C[C@@H]([C@H]3C2)[C@](O)(C(F)(F)F)C4)CC1 | 15.6 |  |  |
| O=C1CCC(=C2C[C@@H]3[C@H](C2)[C@@H]2C[C@H]3[C@@H](O)C2)CC1 | 3.9 |  | 2.7 |
| C#C[C@@]1(O)C[C@H]2C[C@@H]1[C@@H]1CC(=C3CCC(=O)CC3)C[C@H]21 | 57 |  | 4.2 |
| O=C1CCC(=C2C[C@@H]3[C@H]4CC(=O)[C@H](C4)[C@@H]3C2)CC1 | 33 |  | 2.3 |
| C[C@@]1(O)C[C@H]2C[C@@H]1[C@@H]1CC(=C3CCC(=O)CC3)C[C@H]21 | 27.4 |  |  |
| O=C1CCC(=C2C[C@@H]3[C@@H]4C[C@H]([C@@H]3C2)[C@@](O)(C(F)(F)F)C4)CC1 | 41.2 |  | 2.6 |
| O=C1CCC(=C2C[C@H]3[C@@H]4CC(=O)[C@@H](C4)[C@H]3C2)CC1 | 14.2 |  |  |
| C#C[C@]1(O)CC[C@H]2[C@@H]3CCC4Cc5nn(S(C)(=O)=O)cc5C[C@]4(C)[C@H]3CC[C@@]21C (stereo partly drawn) |  | 2.2 |  |
| C=C[C@@]1(O)C[C@H]2C[C@@H]1[C@@H]1CC(=C3CCC(=O)CC3)C[C@H]21 | 62.5 |  |  |
